Measured values from patent publication US20260008817A1, “CYCLIC PEPTIDE OR SALT THEREOF, AND USES THEREOF” (FUJIFILM Corporation, priority 2023, published 2026).
Non-standard residues stand in square brackets, D forms with d. No end group written: not given here. hCys = N[C@@H](CCS)C(=O)O; Orn = NCCC[C@H](N)C(=O)O

Experiments:
[1] = tested on: hMSC-Human Mesenchymal Stem Cells; assay: Mesenchymal stem cell (MSC) proliferation-promoting effect; type: cell-based; settings: 0.001 to 3 nmol/L, compared with bFGF at the same molar ratio; FIG. 3
Description: The mesenchymal stem cell (MSC) proliferation-promoting effect of the cyclic peptide complex was evaluated.
The MSC was activated and subcultured according to the recommended protocol of FUJIFILM Irvine Scientific, Inc. using hMSC-Human Mesenchymal Stem Cells (Lonza, PT-2501) and PRIME-XV MSC Expansion XSFM (FUJIFILM Irvine Scientific, Inc., 91149) as a culture medium. MSCs that had been subcultured 1 to 4 times were used for the evaluation.
The evaluation of the proliferation-promoting effect of MSC was performed by the following method. First, a culture medium (hereinafter, referred to as a custom culture medium) in which bFGF was removed from PRIME-XV MSC Expansion XSFM (FUJIFILM Irvine Scientific, Inc., 91149) was prepared. Next, Prime-XV Human Fibronectin (FUJIFILM Irvine Scientific, Inc., 31002) was dissolved in PBS (Fujifilm Wako Pure Chemical Corporation, 164-23551), 2 μg/cm^2 of the solution was added to a 96-well plate used for evaluation, and the 96-well plate was allowed to stand at room temperature for 3 hours to coat the 96-well plate with fibronectin. […] The number of viable cells was calculated from the imaging data and normalized by setting the number of viable cells in the well to which 1 nmol/L bFGF was added to 100, and setting the number of viable cells in the negative control well to 0.

[2] = tested on: hMSC-Human Mesenchymal Stem Cells; assay: Effect of maintaining MSC undifferentiated potency (gene expression); type: cell-based; settings: cyclic peptide complex 10 nmol/L, bFGF 1 nmol/L, normalized to 1 nmol/L bFGF = 1, FIG. 4
Description: The effect of maintaining mesenchymal stem cell (MSC) undifferentiated potency of the cyclic peptide complex was evaluated.
MSC was prepared in the same manner as in Example 7.
The evaluation of the effect of maintaining the MSC undifferentiated potency was performed by the following method. First, a culture medium (hereinafter, referred to as a custom culture medium) in which bFGF was removed from PRIME-XV MSC Expansion XSFM (FUJIFILM Irvine Scientific, Inc., 91149) was prepared. Next, Prime-XV Human Fibronectin (FUJIFILM Irvine Scientific, Inc., 31002) was dissolved in PBS (Fujifilm Wako Pure Chemical Corporation, 164-23551), 2 μg/cm^2 of the solution was added to a 12-well plate used for proliferation, and the 12-well plate was allowed to stand at room temperature for 3 hours to coat the 12-well plate with fibronectin. Thereafter, the MSCs subjected to the subculture were peeled using Tryple Express (Thermo, 12604-013), washed once with a custom culture medium, suspended in a custom culture medium in which a cyclic peptide complex or bFGF (R&D Systems, 3718-GMP) was diluted to final concentrations of 10 nmol/L and 1 nmol/L, and seeded on a 12-well plate coated with fibronectin. In this case, conditions in which the cyclic peptide complex and bFGF were not added as a negative control were prepared. After culturing at 37° C. (5% CO2) for 2 nights, the culture medium was replaced by removing the supernatant of the culture medium and adding the same amount of a culture medium prepared to have the same composition as the removed culture medium. After further culturing at 37° C. (5% CO2) for 2 nights, RNA was extracted using an RNeasy Plus Mini Kit (Qiagen, 74136) according to the manufacturer's protocol. […] The expression level of each gene was normalized by setting the expression level of the well to which 1 nmol/L bFGF was added to 1.

Bovine myoblasts = assay: Bovine myoblast proliferation-promoting effect; type: cell-based, Japanese Black cattle; settings: 0.03 to 10 nmol/L complex versus 30 ng/mL bFGF, 4 days; FIG. 5
Description: The bovine cells (myoblasts) proliferation-promoting effect of the cyclic peptide complex was evaluated.
Bovine myoblasts were separated from bovine muscle tissue by the following method. First, muscle tissue of Japanese Black cattle was finely chopped in HBSS(−) (phenol red-free) (FUJIFILM Wako Pure Chemical Corporation, 085-09355), and then pronase from Streptomyces griseus (Sigma-Aldrich, 10165921001) was added thereto to a final concentration of 1 mg/mL, and the mixture was allowed to stand at 37° C. for 1 hour. After allowing to stand, HBSS containing 10% FBS was added thereto, and the cells were acquired by centrifugation. The acquired cells were suspended in D-MEM (high glucose) (containing L-glutamine and phenol red) (FUJIFILM Wako Pure Chemical Corporation, 044-29765) containing 10% final concentration of bovine serum and 30 ng/mL bFGF. Suspended cells were cultured in a culture flask coated with an iMatrix-511 solution (FUJIFILM Wako Pure Chemical Corporation, 381-07363) at 0.55 μg/cm^2. […]
The evaluation of the proliferation-promoting effect on bovine myoblasts was performed by the following method. […] The number of viable cells was calculated from the imaging data and normalized by setting the number of viable cells in the well to which 30 ng/mL bFGF was added to 100, and setting the number of viable cells in the negative control well to 0.

F-(Orn(acetyl))-VYTFDAHAHSLDAALN-(Hcy)-I (F[Orn]VYTFDAHAHSLDAALN[hCys]IF[Orn]VYTFDAHAHSLDAALN[hCys]I-NH2; thioether (positions not given here); not fully specified (residues 2, 22, bridges); also: dimer of two 20-mers crosslinked via Bis-NHS-PEG13 between side-chain amino groups, C-terminal amide on each monomer) [SEQ ID NO: 346, cyclic peptide complex; C-terminal amidation, amide crosslinking between side chain amino groups of N via Bis-NHS-PEG13]
MSC proliferation-promoting effect [1]: same degree of MSC proliferation-promoting effect as bFGF | expression level of Sox2 [2]: same degree of a gene expression level as bFGF | proliferation-promoting effect on bovine myoblasts (Bovine myoblasts): comparable to or higher than that of bFGF
